Series [1] relates to mice. The series is described as follows: prepulse inhibition (PPI) test. Type of series: in vivo. To be noted: amylin at 10 mg/kg, haloperidol at 1 mg/kg; all prepulse levels (74, 78, and 82 dB); FIG. 5. The text has this: The prepulse inhibition (PPI) test measures the reflex response to externally applied auditory stimulation (acoustic startle response) and is related to the deficiency in sensory-motor gating capacity seen in schizophrenia. The acoustic startle reflex is a very basic response to strong exteroceptive stimuli and is widely used to assess sensorimotor reactivity in animals and humans. A weak auditory stimulus (prepulse, 74-82 dB) given prior to the strong acoustic stimulus (120 dB) blunts the startle response. This blunting of the startle response is referred to as prepulse inhibition. See, for example, Conti et al (2005) Behavioral Neuroscience 119: 1052-1060. Antipsychotics increase the ability of the prepulse stimulus to blunt the startle response to the strong stimulus. Some psychotomimetic agents, such as phencyclidine (PCP) and ketamine, can actually reduce the percent prepulse inhibition and stimulate a psychotic-like state in animals, which can be antagonized by antipsychotic agents.
Mice were injected with the test agent (rat amylin at 0.1, 1.0 or 10 mg/kg, or vehicle) […] prior to the test or with haloperidol at 1 mg/kg 30 minutes prior to the test. The mice were placed into an animal holder and the holder placed onto a transducer platform in an acoustic chamber. […] The amount of the animal's “reaction” to the strong stimulus was recorded. […]

In another series the test system is treated test animals. As to conditions: cited from earlier work.
Series [2] relates to mice. The series is described as follows: novel object recognition. Type of series: in vivo. As to conditions: rolipram 0.1 mg/kg IP 30 minutes prior to training; test 24 hours later; FIG. 8. As to the method: Since cognitive impairment is associated with psychoses, the effect of amylin administration on novel object recognition was examined. The novel object recognition task was used to measure working memory. See, for example, Miyamoto et al (2005) J. Neuroscience 25:1826-1835. Generally, animals spend less time exploring a previously presented object and more time exploring a novel object when both are presented together. Mice were injected IP with the test agent (rat amylin at 1.0 or 10 mg/kg, 0.1 mg/kg rolipram, or vehicle) 30 minutes prior to the training session. In the training, the mouse was allowed to explore two novel objects placed in the center of an open field. The time spent exploring each object was recorded. The objects differed in color, shape, and texture. Twenty-four hours after the training session, the mouse was placed back in the same open field in which one of the now familiar objects used in the training session was replaced by a novel object. The time spent exploring each object was again recorded. The memory index (or discrimination index) is the time spent exploring the novel object over the total time spent exploring both the novel and familiar objects (times 100). Results of this assay are shown in FIG. 8 where * is P<0.05 vs. vehicle.

Series [3] has as its system mice. As to conditions: mouse, in vivo. As to the method: The PCP-induced locomotion test is used with the open field activity chambers and measures locomotion, rearing, and stereotypic activity under amphetamine/PCP-induced conditions. The test has predictive validity for some antipsychotic drugs that normalize the hyperactivity and stereotypic behavior seen with amphetamine and PCP. See, for example, Williams et al. (2006) Prog. Neuropsychopharmacol. Biol. Psychiatry 30:239-243. Mice were injected with the test agent (rat amylin at 0.1, 1.0 or 10 mg/kg, 3 mg/kg clozapine (CZP), or vehicle) 15-30 minutes prior injection with 5 mg/kg PCP. The animals were then placed in the center of an open field and activity was recorded for 60 minutes. […] CZP is an atypical, second generation antipsychotic drug has a mixed receptor profile, including the dopamine receptor.

Series [4] in a line: weight gain induced by clozapine. The series is classed as in vivo, rats. As to conditions: clozapine 0.025 and 0.25 mg/kg/day, s.c. osmotic pumps, 4 weeks; diet 58% kcal from fat; FIG. 7A.
Procedure: The effect of amylin administration on weight gain induced by the second generation antipsychotic clozapine was examined. Adult, male Sprague-Dawley® rats (diet=58% kcal from fat) were implanted subcutaneously in the interscapular region with osmotic pumps that continuously delivered vehicle or drug for 4 weeks. In one experiment, rats were treated with vehicle or clozapine (0.025 and 0.25 mg/kg/day).
For series [5] the following is noted: compared to human amylin; cited from earlier work.
Series [6] in a line: adsorption onto glass container in liquid form. Type of series: physicochemical.
Series [7] concerns mice. The series is described as follows: marble burying. Type of series: in vivo. As to the method: To confirm the interpretation of the findings outlined under Example 1, a variety of animal behavior assays were performed to test for anxiolytic, antidepressant, and antipsychotic effects of amylin administration. […] These specific behavioral tests are known to be sensitive to anxiolytic, antidepressant, or antipsychotic drugs. For these assays, rat amylin was administered to mice at doses ranging from 0.1 to 10 mg/kg, intraperitoneally or via a subcutaneously implanted osmotic pump (ALZET®) containing vehicle or rat amylin, and their performance in the assay was assessed.
Marble burying is used as a model for both anxiety and obsessive-compulsive disorder. See, for example, Chaki et al. (2003) J. Pharmacol. Exp. Ther. 304:818-826. Anxiolytics suppress marble burying activity. Mice were injected with the test agent (rat amylin at 0.1, 1.0 or 10 mg/kg, […] buspirone, or vehicle) 15-30 minutes prior to the test. Mice were then placed individually in clean cages containing 5-cm of hard wood bedding and 20 marbles spaced evenly in rows of five. The number of marbles buried in 30 minutes was recorded. […] Buspirone is a partial 5-HT1A agonist and an known anxiolytic agent.

Data on ten compounds can be found in US20090181890A1, “Amylin and Amylin Agonists for Treating Psychiatric Diseases and Disorders” (Amylin Pharmaceuticals , Inc., priority 2006, published 2009).

With `O=C(CCCN1CCC(O)(c2ccc(Cl)cc2)CC1)c1ccc(F)cc1` [haloperidol], in the series on mice [1], the “percent of prepulse inhibition” value was “significantly increased the percent of prepulse inhibition”.
On to “des-^1Lys-h-amylin (CNTATCATQRLANFLVHSSNNFGAILSSTNVGSNTY) [human amylin analog of formula I]”, for which, in the series with treated test animals, the “amylin activity in vivo” value is “provoking marked hyperlactemia followed by hyperglycemia”.
Regarding “des-^1Lys^18Arg^25,28Pro-h-amylin (CNTATCATQRLANFLVRSSNNFGPILPSTNVGSNTY) [human amylin analog of formula I]”, the “amylin activity in vivo” value with treated test animals is “provoking marked hyperlactemia followed by hyperglycemia”.
Take `COc1ccc(C2CNC(=O)C2)cc1OC1CCCC1` (centres unmarked) [rolipram]: in the series on mice [2], the “relative time exploring the novel object (memory index), in words” value is reported as “increased the relative time exploring the novel object”.
`CC(C)C[C@H](NC(=O)[C@H](CC(N)=O)NC(=O)[C@H](CC(N)=O)NC(=O)[C@H](CO)NC(=O)[C@H](CO)NC(=O)[C@H](CCCNC(=N)N)NC(=O)[C@@H](NC(=O)[C@H](CC(C)C)NC(=O)[C@H](Cc1ccccc1)NC(=O)[C@H](CC(N)=O)NC(=O)[C@H](C)NC(=O)[C@H](CC(C)C)NC(=O)[C@H](CCCNC(=N)N)NC(=O)[C@H](CCC(N)=O)NC(=O)[C@@H](NC(=O)[C@H](C)NC(=O)[C@@H]1CSSC[C@H](NC(=O)[C@@H](N)CCCCN)C(=O)N[C@@H](CC(N)=O)C(=O)N[C@@H]([C@@H](C)O)C(=O)N[C@@H](C)C(=O)N[C@@H]([C@@H](C)O)C(=O)N1)[C@@H](C)O)C(C)C)C(=O)NCC(=O)N1CCC[C@H]1C(=O)N[C@H](C(=O)N[C@@H](CC(C)C)C(=O)N1CCC[C@H]1C(=O)N1CCC[C@H]1C(=O)N[C@H](C(=O)N[C@@H](CC(N)=O)C(=O)N[C@H](C(=O)NCC(=O)N[C@@H](CO)C(=O)N[C@@H](CC(N)=O)C(=O)N[C@H](C(=O)N[C@@H](Cc1ccc(O)cc1)C(N)=O)[C@@H](C)O)C(C)C)[C@@H](C)O)C(C)C` [amylin]: the “baseline activity, agent alone” value in the series with mice [3] was “did not affect baseline activity”.
For the compound `CN1CCN(C2=Nc3cc(Cl)ccc3Nc3ccccc32)CC1` [clozapine], the “weight gain compared to vehicle-treated rats” value in series [4] is “increased weight gain”. Further, the “baseline activity, agent alone” value in the series on mice [3] is listed as “did affect baseline activity”.
With “^18Arg^25,28Pro-h-amylin (KCNTATCATQRLANFLVRSSNNFGPILPSTNVGSNTY) [human amylin analog of formula I]”, in the series with treated test animals, the “amylin activity in vivo” value is “provoking marked hyperlactemia followed by hyperglycemia”.
On to “^28Pro-h-amylin (KCNTATCATQRLANFLVHSSNNFGAILPSTNVGSNTY) [human amylin analog of formula I]”, for which, in the series with treated test animals, the “amylin activity in vivo” value is reported as “provoking marked hyperlactemia followed by hyperglycemia”.
Turning to `CC[C@H](C)[C@H](NC(=O)[C@@H]1CCCN1C(=O)CNC(=O)[C@H](Cc1ccccc1)NC(=O)[C@H](CC(N)=O)NC(=O)[C@H](CC(N)=O)NC(=O)[C@H](CO)NC(=O)[C@H](CO)NC(=O)[C@H](Cc1c[nH]cn1)NC(=O)[C@@H](NC(=O)[C@H](CC(C)C)NC(=O)[C@H](Cc1ccccc1)NC(=O)[C@H](CC(N)=O)NC(=O)[C@H](C)NC(=O)[C@H](CC(C)C)NC(=O)[C@H](CCCNC(=N)N)NC(=O)[C@H](CCC(N)=O)NC(=O)[C@@H](NC(=O)[C@H](C)NC(=O)[C@@H]1CSSC[C@H](NC(=O)[C@@H](N)CCCCN)C(=O)N[C@@H](CC(N)=O)C(=O)N[C@@H]([C@@H](C)O)C(=O)N[C@@H](C)C(=O)N[C@@H]([C@@H](C)O)C(=O)N1)[C@@H](C)O)C(C)C)C(=O)N[C@@H](CC(C)C)C(=O)N1CCC[C@H]1C(=O)N1CCC[C@H]1C(=O)N[C@H](C(=O)N[C@@H](CC(N)=O)C(=O)N[C@H](C(=O)NCC(=O)N[C@@H](CO)C(=O)N[C@@H](CC(N)=O)C(=O)N[C@H](C(=O)N[C@@H](Cc1ccc(O)cc1)C(N)=O)[C@@H](C)O)C(C)C)[C@@H](C)O` [^25,28,29Pro-h-amylin], the stability characteristics entry in series [5] is “more desirable”. In addition, the “tendency to adsorb onto glass” value in series [6] was “does not have a tendency to adsorb onto the glass”. The “amylin activity in vivo” value in the series with treated test animals is listed as “provoking marked hyperlactemia followed by hyperglycemia”.
Turning to `O=C1CC2(CCCC2)CC(=O)N1CCCCN1CCN(c2ncccn2)CC1` [buspirone], the “reduction in marble burying, significance” value in the series on mice [7] (amylin at 10 mg/kg, buspirone at 20 mg/kg, P<0.05) was “statistically significant”. Moreover, the “number of marbles buried in 30 minutes” value in the series with mice [7] (rat amylin 0.1, 1.0 or 10 mg/kg, buspirone 20/kg, 15-30 minutes prior, FIG. 3) was “reduced the number of marbles buried”.
